For test [1], the system named is E. coli ESBL4 expressing CTX-M-15. Put plainly: broth microdilution MIC, E. coli CTX-M-15. It is filed as cell-based. The following applies: Fixed CAZ (ceftazidime) 4 μg/mL. In outline:
(§1)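 CAMHB; strains pre-grown 3-5 h. Test cpd 2-fold dilutions, 32→0.25 μg/mL final, + beta-lactam static 4 μg/mL. CLSI inoculation, 16-20 h at 37° C, visual MIC.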

In test [2] the test system is K. pneumoniae A-1797 expressing KPC-2 and VIM-4. As to the kind of experiment: broth microdilution MIC, K. pneumoniae KPC-2 and VIM-4. It is filed as cell-based. As to conditions: Fixed Mero (meropenem) 4 μg/mL. A digest of the protocol: as §1
Test [3] concerns the target T1, SHV-5 β-lactamase (Klebsiella pneumoniae, UniProt P0A3M1).
T1 construct: made in house; host or cells: E. coli BL21(DE3)
Put plainly: β-lactamase enzyme inhibition, SHV-5. It is filed as biochemical. A digest of the protocol: (§2)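 IC50 was the inhibitor concentration halving the initial hydrolysis rate versus no-inhibitor wells, following a 15 min 37° C. enzyme–inhibitor preincubation. Substrates: imipenem read at 300 nm for KPC-2, cefotaxime at 260 nm for SHV-5, and nitrocefin (100 μM final) at 486 nm for OXA-1 and p99 AmpC. Enzymes were recombinant untagged proteins from E. coli BL21(DE3).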

The test system of test [4] is E. cloacae 144200 expressing Class C P99 AmpC. Put plainly: broth microdilution MIC, E. cloacae P99. It is filed as cell-based. As to conditions: Fixed CAZ (ceftazidime) 4 μg/mL. A digest of the protocol:
as §1

Test [5] has as its target T2, p99 AmpC β-lactamase (Enterobacter cloacae, UniProt P05364).
T2 construct: made in house; host or cells: E. coli BL21(DE3)
As to the kind of experiment: β-lactamase enzyme inhibition, p99 AmpC. It is filed as biochemical. A digest of the protocol: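 Inhibitor and enzyme were incubated 15 min at 37°C first. The enzyme was recombinant p99 AmpC, untagged, from E. coli BL21(DE3), purified by ion-exchange and size-exclusion chromatography.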

Test [6] deals with T3, KPC-2 β-lactamase (Klebsiella pneumoniae, UniProt Q9F663).
T3 construct: made in house; host or cells: E. coli BL21(DE3)
T3 sequence (Q9F663 25-293, looked up): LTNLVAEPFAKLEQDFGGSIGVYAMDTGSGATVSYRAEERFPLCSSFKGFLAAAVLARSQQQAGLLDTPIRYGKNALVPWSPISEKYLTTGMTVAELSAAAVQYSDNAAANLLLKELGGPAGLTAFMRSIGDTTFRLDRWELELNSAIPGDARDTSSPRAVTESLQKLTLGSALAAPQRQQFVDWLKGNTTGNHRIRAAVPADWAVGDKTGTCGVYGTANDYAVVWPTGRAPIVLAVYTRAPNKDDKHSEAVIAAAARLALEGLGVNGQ
Put plainly: β-lactamase enzyme inhibition, KPC-2. Format: biochemical. As to conditions: imipenem substrate, 300 nm; 15 min at 37° C. preincubation; read-out: IC50 KPC-2 (Class A). In outline:
as §2

The subject of test [7] is K. pneumoniae 156319 expressing KPC-3. Put plainly: broth microdilution MIC, K. pneumoniae KPC-3. It is filed as cell-based. As to conditions: Fixed Mero (meropenem) 4 μg/mL. A digest of the protocol:
as §1

The target in test [8] is T4, OXA-1 β-lactamase (Escherichia coli, UniProt P13661).
T4 construct: made in house; host or cells: E. coli BL21(DE3)
T4 sequence (P13661 26-276): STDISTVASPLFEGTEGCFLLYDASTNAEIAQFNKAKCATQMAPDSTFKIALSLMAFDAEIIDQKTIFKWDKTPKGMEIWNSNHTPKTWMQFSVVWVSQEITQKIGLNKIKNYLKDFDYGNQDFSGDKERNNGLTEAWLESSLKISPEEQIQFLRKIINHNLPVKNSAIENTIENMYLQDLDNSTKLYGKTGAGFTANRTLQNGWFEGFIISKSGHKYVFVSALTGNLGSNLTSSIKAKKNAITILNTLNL
As to the kind of experiment: β-lactamase enzyme inhibition, OXA-1. Format: biochemical. The following applies: Nitrocefin 100 μM, 486 nm; 15 min at 37° C. preincubation; read-out: IC50 OXA-1 (Class D). The procedure:
For SHV-5, Kpc-2, p99AmpC and OXA-1 β-lactamases, E. coli BL21(DE3) bacterial cells carrying expression plasmids (expressed as native untagged proteins) for the individual β-lactamases were grown in 1 L of Superbroth (Teknova Inc. Hollister, Calif.) supplemented with 100 μg/ml kanamycin selection and 1×5052 (0.5% glycerol, 0.05% glucose and 0.2% α-lactose) at 35° C. for 18-20 hours. Cells were harvested by centrifugation (4,000×g, 4° C., 20 min), resuspended in 50 ml of 10 mM HEPES pH 7.5 ( 1/20 of the initial volume). The cells were lysed by sonication (5 pulses of 45 seconds) at 45 W on ice. The lysates were clarified by centrifugation at 10,000×g for 40 minutes at 4° C. Samples were diluted 5-fold in 50 mM sodium acetate pH 5.0, stored overnight at 4° C., after which they were centrifuged at 10,000×g for 30 minutes to clarify, and filtered through 0.45 μm filters. The samples were loaded onto a 5 ml Capto S sepharose cation exchange column (GE Healthcare) pre-equilibrated with 50 mM sodium acetate pH 5.0. The column was washed with 5 column volumes of 50 mM sodium acetate pH 5.0 to wash out unbound protein and a linear gradient of NaCl (0 to 500 mM) was used to elute the protein (over 16 CV) from the column. Fractions were assayed for […] activity using Centa (Calbiochem, Gibbstown, N.J.) or Nitrocefin (EMD Millipore chemicals, Darmstadt, Germany) as a reporter β-lactamase substrate for activity in the isolated fractions. Active fractions were pooled, concentrated and further purified by gel filtration chromatography on a Superdex 75 prep grade gel filtration column (GE Healthcare, Piscataway, N.J.) pre-equilibrated in 50 mM Hepes pH 7.5, 150 mM NaCl. Active fractions were pooled, concentrated, and quantitated by BCA protein determination (Thermo Scientific, Rockford, Ill.), dialyzed into PBS and frozen at −80° C. in 20% glycerol until use.
An equal volume of diluted enzyme stock was added, and the plates were incubated at 37° C. for 15 min. Nitrocefin was used as substrate for p99 AmpC, VIM-2 and OXA-1 and dispensed into each well at a final concentration of 100 μM. Absorbance at 486 nm was immediately monitored for 10 min using a Biotek Powerwave XS2 microplate spectrophotometer using the GEN5 software package (Biotek Instruments, Winooski Vt.). In an analogous fashion, imipenem was used as substrate for KPC-2 and Cefotaxime was used for SHV-5, while changes in absorbance upon hydrolysis of the β-lactam ring were monitored at 300 nm and 260 nm respectively in UV-transparent 96-well microtiter assay plates. Maximum rates of hydrolysis were compared to those in control wells (without inhibitors), and percentages of enzyme inhibition were calculated for each concentration of inhibitor. The concentration of inhibitor needed to reduce the initial rate of hydrolysis of substrate by 50% (IC50) was calculated as the residual activity of β-lactamase at 486 nm using GraFit version 7 kinetics software package (Erithacus Software, Surrey, UK).
Using the methodology described above, examples of the current invention were evaluated for their ability to inhibit β-lactamase enzymes from all four Ambler classifications (A through D). […] NT=Not tested.

The target of test [9] is T5, VIM-2 metallo β-lactamase (Pseudomonas aeruginosa, UniProt Q9K2N0).
T5 construct: made in house; host or cells: E. coli BL21(DE3)
As to the kind of experiment: β-lactamase enzyme inhibition, VIM-2. Format: biochemical. As to conditions: Nitrocefin 100 μM, 486 nm; 15 min at 37° C. preincubation; read-out: IC50 VIM-2 (Class B). In outline:
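Inhibitor and enzyme sat together 15 min at 37° C before 100 μM nitrocefin (final) was added and 486 nm absorbance read for 10 min. IC50 is the concentration halving initial hydrolysis rate relative to uninhibited wells. Protein came from Q sepharose anion exchange at pH 7.5, repeated to >90% purity.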

T1 sequence (P0A3M1 22-286): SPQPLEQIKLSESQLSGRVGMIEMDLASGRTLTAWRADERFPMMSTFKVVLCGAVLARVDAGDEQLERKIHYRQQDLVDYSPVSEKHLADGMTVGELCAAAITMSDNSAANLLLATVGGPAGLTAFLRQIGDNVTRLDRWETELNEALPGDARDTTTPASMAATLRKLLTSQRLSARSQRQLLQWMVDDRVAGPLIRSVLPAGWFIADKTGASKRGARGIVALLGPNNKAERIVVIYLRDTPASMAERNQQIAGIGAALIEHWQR
T2 sequence (P05364 21-381): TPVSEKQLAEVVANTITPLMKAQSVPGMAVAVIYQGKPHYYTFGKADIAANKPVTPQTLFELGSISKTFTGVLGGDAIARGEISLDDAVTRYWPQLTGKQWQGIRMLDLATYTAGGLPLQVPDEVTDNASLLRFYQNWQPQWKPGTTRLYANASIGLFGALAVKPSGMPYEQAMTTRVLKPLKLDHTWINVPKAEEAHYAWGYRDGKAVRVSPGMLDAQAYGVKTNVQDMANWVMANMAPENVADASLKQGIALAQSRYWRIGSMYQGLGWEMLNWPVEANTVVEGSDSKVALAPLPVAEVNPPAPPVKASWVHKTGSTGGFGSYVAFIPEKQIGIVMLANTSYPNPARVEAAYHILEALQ

Turning to `CC(=O)CC(=O)CCC(=O)N[C@H]1Cc2cccc(C(=O)O)c2OB1O` [Example 41, (R)-3-(4,6-Dioxo-heptanoylamino)-2-hydroxy-3,4-dihydro-2H-benzo[e][1,2]oxaborinine-8-carboxylic acid], the “MIC of exemplary compounds in presence of fixed β-lactams, E. coli ESBL4 CTX-M-15” value (shortened to “MIC … E. coli ESBL4 CTX-M-15”) in test [1] was “C (C represents the MIC in the presence of ≤4 g/mL of a β-lactamase inhibitor)”. Further, the “MIC of exemplary compounds in presence of fixed β-lactams, K.P. A-1797 KPC-2 VIM-4” value (from here on “MIC … K.P. A-1797 KPC-2 VIM-4”) in [2] is recorded as “C (C represents the MIC in the presence of ≤4 g/mL of a β-lactamase inhibitor)”. Further, the IC50 in test [3] is < 0.1 µM; in [5], < 0.1 µM; in test [6], 0.1 to 1 µM; in [8], < 0.1 µM; in test [9] it was < 0.1 µM. In addition, the “MIC of exemplary compounds in presence of fixed β-lactams, E. cl. 144200 p99 AmpC” value (from here on “MIC … E. cl. 144200 p99 AmpC”) in [4] is “C (C represents the MIC in the presence of ≤4 g/mL of a β-lactamase inhibitor)”. Moreover, the “MIC of exemplary compounds in presence of fixed β-lactams, K.P. 156319 KPC-3” value (“MIC of exemplary compounds … K.P. 156319 KPC-3” for short) in test [7] is “B (B represents the MIC in the presence of between 8 and 32 g/mL of a β-lactamase inhibitor)”.
As for `O=C(CCC(=O)c1ccccc1)N[C@H]1Cc2cccc(C(=O)O)c2OB1O` [Example 42, (R)-2-Hydroxy-3-(4-oxo-4-phenyl-butyrylamino)-3,4-dihydro-2H-benzo[e][1,2]oxaborinine-8-carboxylic acid], the “MIC … E. coli ESBL4 CTX-M-15” value in test [1] is on record as “C (C represents the MIC in the presence of ≤4 g/mL of a β-lactamase inhibitor)”. In test [2], the “MIC … K.P. A-1797 KPC-2 VIM-4” value is “B (B represents the MIC in the presence of between 8 and 32 g/mL of a β-lactamase inhibitor)”. For the same compound, the IC50 is < 0.1 µM in test [3]; < 0.1 µM in test [5]; < 0.1 µM in [6]; < 0.1 µM in test [8]; 0.1 to 1 µM in [9]. The “MIC … E. cl. 144200 p99 AmpC” value in test [4] is recorded as “C (C represents the MIC in the presence of ≤4 g/mL of a β-lactamase inhibitor)”. The “MIC of exemplary compounds … K.P. 156319 KPC-3” value in test [7] was “B (B represents the MIC in the presence of between 8 and 32 g/mL of a β-lactamase inhibitor)”.
For `CC(C)(C#N)CC(=O)N[C@H]1Cc2cccc(C(=O)O)c2OB1O` [Example 43, (R)-3-(3-Cyano-3,3-dimethyl-propionylamino)-2-hydroxy-3,4-dihydro-2H-benzo[e][1,2]oxaborinine-8-carboxylic acid], the “MIC … E. coli ESBL4 CTX-M-15” value in [1] is recorded as “C (C represents the MIC in the presence of ≤4 g/mL of a β-lactamase inhibitor)”. The “MIC … K.P. A-1797 KPC-2 VIM-4” value in [2] was “B (B represents the MIC in the presence of between 8 and 32 g/mL of a β-lactamase inhibitor)”. In addition, the IC50 in test [3] was 0.1 to 1 µM; in test [5], 0.1 to 1 µM; in test [6] it was < 0.1 µM; in test [8], < 0.1 µM; in [9] it was 0.1 to 1 µM. For the same compound, in test [4], the “MIC … E. cl. 144200 p99 AmpC” value is “C (C represents the MIC in the presence of ≤4 g/mL of a β-lactamase inhibitor)”. Also, the “MIC of exemplary compounds … K.P. 156319 KPC-3” value in test [7] is given as “C (C represents the MIC in the presence of ≤4 g/mL of a β-lactamase inhibitor)”.
Take `N#CCCC(=O)N[C@H]1Cc2ccc(F)c(C(=O)O)c2OB1O` [Example 46, (R)-3-(3-Cyano-propionylamino)-7-fluoro-2-hydroxy-3,4-dihydro-2H-benzo[e][1,2]oxaborinine-8-carboxylicacid]: the “MIC … E. coli ESBL4 CTX-M-15” value in test [1] is “C (C represents the MIC in the presence of ≤4 g/mL of a β-lactamase inhibitor)”. The “MIC … K.P. A-1797 KPC-2 VIM-4” value in test [2] is “B (B represents the MIC in the presence of between 8 and 32 g/mL of a β-lactamase inhibitor)”. Further, the IC50 in test [3] is < 0.1 µM; in test [5], < 0.1 µM; in test [6] it was < 0.1 µM; in test [8], < 0.1 µM; in test [9], 0.1 to 1 µM. In [4], the “MIC … E. cl. 144200 p99 AmpC” value is recorded as “C (C represents the MIC in the presence of ≤4 g/mL of a β-lactamase inhibitor)”. In addition, the “MIC of exemplary compounds … K.P. 156319 KPC-3” value in [7] is given as “C (C represents the MIC in the presence of ≤4 g/mL of a β-lactamase inhibitor)”.
For the compound `CC(=O)CCC(=O)N[C@H]1Cc2ccc(F)c(C(=O)O)c2OB1O` [Example 47, (R)-7-Fluoro-2-hydroxy-3-(4-oxo-pentanoylamino)-3,4-dihydro-2H-benzo[e][1,2]oxaborinine-8-carboxylic acid], the “MIC … E. coli ESBL4 CTX-M-15” value in test [1] is reported as “C (C represents the MIC in the presence of ≤4 g/mL of a β-lactamase inhibitor)”. Further, the “MIC … K.P. A-1797 KPC-2 VIM-4” value in test [2] is “C (C represents the MIC in the presence of ≤4 g/mL of a β-lactamase inhibitor)”. Besides, the IC50 in test [3], in test [5], in [6], in [8] and in test [9] was < 0.1 µM throughout. Moreover, the “MIC … E. cl. 144200 p99 AmpC” value in [4] is recorded as “C (C represents the MIC in the presence of ≤4 g/mL of a β-lactamase inhibitor)”. Moreover, the “MIC of exemplary compounds … K.P. 156319 KPC-3” value in test [7] is on record as “C (C represents the MIC in the presence of ≤4 g/mL of a β-lactamase inhibitor)”.
As to `CS(=O)(=O)NCCC(=O)N[C@H]1Cc2ccc(F)c(C(=O)O)c2OB1O` [Example 48, (R)-7-Fluoro-2-hydroxy-3-(3-methanesulfonylamino-propionylamino)-3,4-dihydro-2H-benzo[e][1,2]oxaborinine-8-carboxylic acid], the “MIC … E. coli ESBL4 CTX-M-15” value in test [1] is reported as “C (C represents the MIC in the presence of ≤4 g/mL of a β-lactamase inhibitor)”. In addition, in [2], the “MIC … K.P. A-1797 KPC-2 VIM-4” value is “B (B represents the MIC in the presence of between 8 and 32 g/mL of a β-lactamase inhibitor)”. The IC50 was < 0.1 µM in test [3]; < 0.1 µM in test [5]; < 0.1 µM in test [6]; < 0.1 µM in test [8]; 0.1 to 1 µM in test [9]. The “MIC … E. cl. 144200 p99 AmpC” value in test [4] is “C (C represents the MIC in the presence of ≤4 g/mL of a β-lactamase inhibitor)”. For the same compound, the “MIC of exemplary compounds … K.P. 156319 KPC-3” value in [7] is “C (C represents the MIC in the presence of ≤4 g/mL of a β-lactamase inhibitor)”.

Source of the values: patent publication US11008346B2, “Beta-lactamase inhibitors” (priority 2014, dated 2021).
